# According to patent US20230072421A1, “TARGETED RADIOPHARMACEUTICALS FOR THE DIAGNOSIS AND TREATMENT OF PROSTATE CANCER” (Bayer AS, priority 2019, published 2023):
# What was measured:
# VCaP cells = experiment: Cell proliferation assay (CellTiter-Glo, 5-day exposure), VCaP; format: cell-based; conditions: 4000 cells/well, Th-227 labelled at 375 kBq/nmol, mean of 1 to 6 experiments
# Summary of the method: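 Thorium-227-labeled PSMA small-molecule ligands were applied for 5 days to prostate cancer lines plated overnight at 1000 cells/well (22Rv1, C4-2, LNCaP) or 4000 cells/well (VCaP). CellTiter-Glo luminescence gave viability at day 0 in sister plates and again after exposure.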
# [1] = target: T1, PSMA-expressing LNCaP cells (Homo sapiens, UniProt Q04609); experiment: Internalization assay (membrane bound and internalized Th-227); format: cell-based; conditions: 10 nM radiolabeled compound, Th-227 at 375 kBq/nmol, triplicates; for Internalized in LNCaP fmol/10^6 cells 30 min / Membrane bound in LNCaP fmol/10^6 cells 30 min: 30 min incubation; for Internalized in LNCaP fmol/10^6 cells 2 h / Membrane bound in LNCaP fmol/10^6 cells 2 h: 2 h incubation
# T1 construct: PSMA-expressing LNCaP cells; endogenous in cells; host or cells: LNCaP
# Method: For internalization assays 24 well plates (#3526, Corning) were coated with 200 μl Poly-L-Lysine (0.1 mg/ml, #3438-100-01, Fa. Cultrex) per well for 2 h at 37° C. […] Cells were incubated at 37° C. and 5% CO2 over night. On the following day 400 μl of the media were removed and a total of 200 μl growth medium added supplemented with PSMA-SMOLs labeled with Th-227 at 375 kBq/nmol in triplicates. Radiochemical purity of the labeling was analyzed by instant thin layer chromatography and found to be above 70% for all compounds used. The final concentration of radiolabeled SMOLs was in the test wells was 10 nM. Cells were incubated for 30 min or 2 h. After the incubation time supernatants were taken off and cells washed with PBS. Thereafter cells were washed twice with 0.2 ml 50 mM Glycine-HCl buffer (#55097, Sigma Aldrich) and once with PBS and the washing solutions combined in counting vials (#TK75-018, Fa. Corning) and subjected to gamma counting (1470 Wizard automatic gamma counter, Wallac). The resulting counts were attributed to membrane bound radioactivity. Cells were then lysed with 500 μl 0.3N NaOH (#181691.1211, Fa. PanReac AppliChem ITW Reagents) followed by another wash with 500 μl PBS. The NaOH lysate as well as the final wash were combined in vials and subjected to gamma counting as described above. Measured radioactivity was attributed to internalized fraction. Results were calculated as fmol of Th-227 per/10^cells in the membrane bound and internalized fractions from triplicate values.
# LNCaP cells = experiment: Cell proliferation assay (CellTiter-Glo, 5-day exposure), LNCaP; format: cell-based, human; conditions: LNCaP, 1000 cells/well; Th-227 labelled at 375 kBq/nmol; 5-day exposure; mean of 1 to 6 experiments
# Summary of the method: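 Th-227-labelled PSMA ligands (375 kBq/nmol) serially diluted in triplicate on 22Rv1, C4-2, LNCaP (1000 cells/well) and VCaP (4000 cells/well) seeded overnight at 37 °C. Viability by CellTiter-Glo luminescence at treatment start (sister plates) and after 5-day exposure; dose-response curves fitted.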
# T1 sequence (Q04609 whole entry): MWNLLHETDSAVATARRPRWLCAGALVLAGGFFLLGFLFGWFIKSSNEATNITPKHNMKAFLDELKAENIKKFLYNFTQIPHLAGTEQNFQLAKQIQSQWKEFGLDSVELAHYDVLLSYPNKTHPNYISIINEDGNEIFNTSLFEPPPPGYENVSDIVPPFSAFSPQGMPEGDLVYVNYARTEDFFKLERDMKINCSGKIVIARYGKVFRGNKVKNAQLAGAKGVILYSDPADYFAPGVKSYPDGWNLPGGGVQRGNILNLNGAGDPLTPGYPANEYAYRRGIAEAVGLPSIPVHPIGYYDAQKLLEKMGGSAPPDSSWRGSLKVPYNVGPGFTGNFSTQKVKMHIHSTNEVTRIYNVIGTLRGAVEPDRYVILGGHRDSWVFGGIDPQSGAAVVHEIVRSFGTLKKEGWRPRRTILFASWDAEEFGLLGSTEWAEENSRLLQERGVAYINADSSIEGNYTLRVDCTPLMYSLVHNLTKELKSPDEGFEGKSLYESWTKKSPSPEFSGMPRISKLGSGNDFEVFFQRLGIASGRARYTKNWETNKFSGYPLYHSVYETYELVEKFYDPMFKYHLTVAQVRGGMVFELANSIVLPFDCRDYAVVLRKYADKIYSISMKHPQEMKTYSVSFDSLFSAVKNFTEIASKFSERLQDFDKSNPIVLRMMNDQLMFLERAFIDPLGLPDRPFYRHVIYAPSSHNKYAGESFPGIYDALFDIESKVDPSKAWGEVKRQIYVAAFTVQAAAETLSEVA
SMILES,Proliferation assay on cancer cell lines by TTCs Default Pivot #3 IC50 [kBq/mL] VCap 4000cells 375kBq/nmol (mean) (VCaP cells),Internalized in LNCaP fmol/10^6 cells 30 min [1],Membrane bound in LNCaP fmol/10^6 cells 30 min [1],Internalized in LNCaP fmol/10^6 cells 2 h [1],Membrane bound in LNCaP fmol/10^6 cells 2 h [1],Proliferation assay on cancer cell lines by TTCs Default Pivot #3 IC50 [kBq/mL] LnCap 1000cells 375kBq/nmol (mean) (LNCaP cells)
"O=C([O-])CN1CCN(CC(=O)[O-])CCN(CC(=O)NCC2CCC(C(=O)NC(Cc3ccc4ccccc4c3)C(=O)NCCCCC(NC(=O)NC(CCC(=O)O)C(=O)O)C(=O)O)CC2)CCN(CC(=O)[O-])CC1.[227Th+4] [Example 1-B-227Th, [^227Th]Thorium (3S,10S,14S)-3-[(naphthalen-2-yl)methyl]-1,4,12-trioxo-1-{(1r,4S)-4-[(2-{4,7,10-tris[(carboxy-kappaO)methyl]-1,4,7,10-tetraazacyclododecan-1-yl-kappa^4N^1,N^4,N^7,N^10}acetamido)methyl]cyclohexyl}-2,5,11,13-tetraazahexadecane-10,14,16-tricarboxylate]",0.38 kBq/mL,55 fmol/10^6 cells,237 fmol/10^6 cells,189 fmol/10^6 cells,438 fmol/10^6 cells,0.03 kBq/mL
"O=C([O-])CN1CCN(CC(=O)[O-])CCN(CC(=O)NCC2CCC(C(=O)NC(Cc3ccc4ccccc4c3)C(=O)NCCCCC(NC(=O)NC(CCC(=O)O)C(=O)O)C(=O)O)CC2)CCN(CC(=O)[O-])CC1.[227Th+4] [Example 1-B-D-227Th, [^227Th]Thorium-(3S,10S,14R)-3-[(naphthalen-2-yl)methyl]-1,4,12-trioxo-1-{(1r,4S)-4-[(2-{4,7,10-tris[(carboxy-kappaO)methyl]-1,4,7,10-tetraazacyclododecan-1-yl-kappa^4N^1,N^4,N^7,N^10}acetamido)methyl]cyclohexyl}-2,5,11,13-tetraazahexadecane-10,14,16-tricarboxylate]",4.52 kBq/mL,3 fmol/10^6 cells,16 fmol/10^6 cells,12 fmol/10^6 cells,30 fmol/10^6 cells,0.49 kBq/mL
